Test results taken from patent US20230304010A1, “COMPOSITIONS AND METHODS FOR TREATING VIRAL INFECTIONS” (priority 2020, published 2023).
Like-named read-outs stand apart in the source and are kept apart here. Ends that are not written are not given here.

Key:
[1] = Nanoparticle formation of peptides with ADGN-106: mean size and polydispersity (Zetasizer); type: physicochemical; conditions: 25° C.; for Mean Size (nm): peptide/ADGN-106 complexes; for PI: polydispersity index of peptide/ADGN-106 complexes
Source text: We then tested the ability of the different peptides to form nanoparticle organization in the presence of ADGN-106 or ADGN-100 peptide. […] Peptides were complexed with 5 or 10 molar excess of ADGN-106.

[2] = biological target: SARS-CoV-2 Spike: ACE2 interaction (UniProt P0DTC2+Q9BYF1); assay: biochemical; type: binding
SARS-CoV-2 Spike: ACE2 interaction, sequence (Q9BYF1 18-740, one chain of several): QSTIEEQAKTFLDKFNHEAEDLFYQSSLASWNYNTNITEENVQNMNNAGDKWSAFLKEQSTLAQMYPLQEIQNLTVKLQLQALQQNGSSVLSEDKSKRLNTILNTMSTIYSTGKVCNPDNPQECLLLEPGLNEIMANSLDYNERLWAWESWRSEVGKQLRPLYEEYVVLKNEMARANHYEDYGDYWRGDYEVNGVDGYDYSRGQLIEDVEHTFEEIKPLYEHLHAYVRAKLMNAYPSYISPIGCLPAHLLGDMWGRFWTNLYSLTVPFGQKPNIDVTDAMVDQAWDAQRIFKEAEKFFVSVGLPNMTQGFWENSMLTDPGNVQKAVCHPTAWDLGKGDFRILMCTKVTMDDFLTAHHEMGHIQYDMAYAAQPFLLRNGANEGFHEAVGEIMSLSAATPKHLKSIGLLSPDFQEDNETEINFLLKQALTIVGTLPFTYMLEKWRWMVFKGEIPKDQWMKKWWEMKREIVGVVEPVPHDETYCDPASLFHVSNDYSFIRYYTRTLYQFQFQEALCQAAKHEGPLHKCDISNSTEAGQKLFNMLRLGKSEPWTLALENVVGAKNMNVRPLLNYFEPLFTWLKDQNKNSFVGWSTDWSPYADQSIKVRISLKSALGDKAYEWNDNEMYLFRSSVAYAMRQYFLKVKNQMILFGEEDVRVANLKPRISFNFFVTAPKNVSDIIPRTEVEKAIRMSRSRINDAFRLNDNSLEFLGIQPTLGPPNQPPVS

Vero E6 cells = conditions: uninfected Vero E6 cells; for Cell Viability (%): 0.5 µM
SARS-CoV-2 [3] = tested on: SARS-CoV-2
SARS-CoV-2 ORF 3A gene = type: cell-based
[4] = biological target: ACE2:SARS-CoV-2 Spike interaction (UniProt P0DTC2+Q9BYF1); assay: biochemical; type: binding
ACE2:SARS-CoV-2 Spike interaction, sequence (Q9BYF1 18-740, one chain of several): as above

in vitro = conditions: uninfected Vero E6 cells
Vero-6 cells = assay: Cellular toxicity of siRNA/ADGN-100 complexes on Vero-6 cells, CellTiter-Glo; conditions: uninfected Vero-6 cells
[5] = tested on: SARS-CoV-2 Nucleocapsid gene; type: cell-based
SARS-CoV-2 [6] = assay: siRNA/ADGN-100 complexes on SARS-CoV2 virus infection, Vero E6 cells; type: cell-based; conditions: siRNA complexed with ADGN-100 at molar ratio 1/20, added to Vero-E6 immediately prior to virus infection; read-out: IC50

Row | Molecule | Mean Size (nm) [1] [nm] | PI [1] | Cell Viability (%) (Vero E6 cells) | Residual Infection (%) (SARS-CoV-2 [3]) | IC50 (SARS-CoV-2 ORF 3A gene) [nM] | also measured
1 | Ac-T*NGVGYQPYK*-Ava-LWRALWRLWRSLWRLLWK-NH2 [Seq22] | 54.4 ± 8 | 0.24 | 87 | 40 | – | blocked SARS-CoV-2 Spike: ACE2 interaction [2]: blocked; fold less potent than Seq20/Seq21 [2]: 3.6 fold; TD50 (Vero E6 cells): 358 ± 27 µM; inhibition of viral infection (SARS-CoV-2 [3]): exhibit inhibition of viral infection; reduction of virus infection (SARS-CoV-2 [3]): 60%; IC50 (SARS-CoV-2 [3]; read-out: D-IC50): 124 ± 14 nM; IC50 (SARS-CoV-2 [3]; read-out: P-IC50): 145 ± 25 nM
2 | GTGTAACTTCTTCAATTGTCA (chemistry not given here) [DIVC-32] | – | – | – | – | 95.1 ± 7 | –
3 | CSCC[C@H](NC(=O)[C@H](CC(N)=O)NC(C)=O)C(=O)N[C@H](C(=O)N[C@@H](CCC(N)=O)C(=O)NCC(=O)N[C@@H](Cc1ccccc1)C(=O)N[C@@H](Cc1c[nH]c2ccccc12)C(=O)N[C@@H](CCC(=O)O)C(=O)N[C@@H](CC(N)=O)C(=O)N1CCC[C@H]1C(=O)NCC(=O)NCC(=O)N1CCC[C@H]1C(=O)N[C@H](C(=O)N[C@@H](C)C(=O)N[C@@H](Cc1c[nH]c2ccccc12)C(=O)N[C@@H](CC(=O)O)C(=O)N[C@@H](CC(C)C)C(=O)NCC(=O)N[C@@H](CCCCN)C(=O)NCCCCCC(=O)N[C@@H](CC(C)C)C(=O)N[C@@H](Cc1c[nH]c2ccccc12)C(=O)N[C@@H](CCCNC(=N)N)C(=O)N[C@@H](C)C(=O)N[C@@H](CC(C)C)C(=O)N[C@@H](Cc1c[nH]c2ccccc12)C(=O)N[C@@H](CCCNC(=N)N)C(=O)N[C@@H](CC(C)C)C(=O)N[C@@H](Cc1c[nH]c2ccccc12)C(=O)N[C@@H](CCCNC(=N)N)C(=O)N[C@@H](CO)C(=O)N[C@@H](CC(C)C)C(=O)N[C@@H](Cc1c[nH]c2ccccc12)C(=O)N[C@@H](CCCNC(=N)N)C(=O)N[C@@H](CC(C)C)C(=O)N[C@@H](CC(C)C)C(=O)N[C@@H](Cc1c[nH]c2ccccc12)C(=O)N[C@@H](CCCCN)C(N)=O)[C@@H](C)O)[C@@H](C)O [Seq38] | 39 ± 10 | 0.25 | – | 80 | – | IC50 ([4]; ACE2:SARS-CoV-2 Spike IC50): 103 ± 17 nM; viability at 0.5 µM (in vitro): 68%; IC50 ([2]; SARS-CoV-2 Spike:ACE2 IC50): 214 nM
4 | Ac-G*FQPTNGVK*-Ava-LWRALWRLWRSLWRLLWK-NH2 [Seq21] | 78.2 ± 7 | 0.3 | 78 | 79 | – | –
5 | GACAAGGCGTTCCAATTAACA (chemistry not given here) [DIVC-3] | – | – | – | – | – | TD50 (μM) (Vero-6 cells): 452 + 20 μM; IC50 [5]: 11.4 ± 5 nM; IC50 (SARS-CoV-2 [6]): 84 ± 14 nM
6 | GCCTCTTCTCGTTCCTCATCA (chemistry not given here) [DIVC-8] | – | – | – | – | – | TD50 (μM) (Vero-6 cells): 548 + 25 μM; IC50 [5]: 27.3 nM; IC50 (SARS-CoV-2 [6]): 117 nM
7 | Ac-G*NYNYLYRLFK*-Ava-LWRALWRLWRSLWRLLWK-NH2 [Seq15] | 37.5 ± 5 | 0.23 | 95 | 100 | – | IC50 ([4]; read-out: ACE2:SARS-CoV-2 Spike IC50): > 10000 nM; IC50 ([2]; read-out: SARS-CoV-2 Spike:ACE2 IC50): > 1000 nM
8 | GGTGAAATCAAGGATGCTACT [DIVC-31] | – | – | – | – | 18.4 ± 2 | –
9 | TGCAGAGTATAAACTTTGTAA (chemistry not given here) [DIVC-35] | – | – | – | – | 125 ± 11 | –
10 | KWRSAGWRWRLWRVRSWSR [ADGN-100, reference compound] | – | – | – | – | – | TD50 (μM) (Vero-6 cells): 368 + 18 μM
11 | Ac-S*YGFQPTNGV*-Ava-LWRALWRLWRSLWRLLWK-NH2 [Seq20] | 68.1 ± 5 | 0.25 | 91 | 65 | – | inhibition of viral infection (SARS-CoV-2 [3]): exhibit inhibition of viral infection
12 | CAAGTCCTATTTCTGAACATG (chemistry not given here) [DIVC-33] | – | – | – | – | 57.2 ± 12 | –
